What was measured:
Assay type in all cases: in vivo
[1] = test system: mosquitoes (Aedes aegypti); assay: Test Example 1: mosquito entrance inhibition in treated cup; conditions: Aedes aegypti females; 0.3 mg/cup on filter paper; counted 10 minutes after setting; disposal warmer lure
Procedure: A lower side part of a plastic cup (base diameter: 10 cm; top opening diameter: 12 cm; height: 7 cm; capacity: about 650 ml) was cut out to form a 2 cm square entrance of mosquitoes. At the center of said cup was placed a twofold disposal warmer (Kiribai New Hand Warmer, 24-hour type, 13.5×10 cm) as a lure for mosquitoes. A 9 cm-diameter filter paper was treated with a 1 ml solution of the test substance diluted with acetone to a predetermined concentration, and after acetone was air dried, said filter paper was attached to the inside of the cover of said cup with a double-side adhesive tape. This cover was fitted on said cup, allowing the test substance to volatilize and diffuse in the cup for one minute.
In a nylon gauze-made cage (50 cm×50 cm×50 cm) holding about 600 mosquitoes (Aedes aegypti) one to 2 weeks old after emergence (sex ratio=ca. 1:1), 2 said cups were placed cater-cornered across the cage, each of said cups being positioned about 10 cm away from the cage corner, to lure the mosquitoes. […] 10 minutes after setting the cups at said positions in the cage, each cup was taken out of the cage and the number of the female insects attracted into the cup was counted. Based on the obtained result, the insect entrance inhibition rate was calculated from the following equation: […]

[2] = test system: mosquitoes (Culex pipiens pallens); assay: Test Example 2: mosquito entrance inhibition in treated cup, overnight luring; conditions: 3.0 mg/cup, tacky trap in cup
[3] = test system: houseflies (Musca domestica); assay: Test Example 3: housefly entrance inhibition in treated cup; conditions: 100 mg/cup, powder milk and sugar lure
Meqaselia spiracularis = assay: Test Example 4: entrance inhibition in treated cup, maggot rearing medium lure; conditions: 100 mg/cup, 30 minutes after setting
Clogmia albipunctata = assay: Test Example 5: entrance inhibition in treated cup, in the dark; conditions: 30 mg/cup, 2 hours after setting
Tineola bisselliella = assay: Test Example 6: entrance inhibition in treated carton with wool muslin; conditions: Tineola bisselliella female adults; 1 mg/cup (carton with wool muslin)
Text: Insect entrance inhibition rate (%)={(number of insects attracted into the non-treated section−number of insects attracted into the treated section)/number of insects attracted into the non-treated section}×100 A lower end of a 4.5 cm×4.5 cm×4.5 cm carton was cut out to form a 0.5 cm×4.5 cm entrance of insects. A filter paper (2 cm×2 cm) impregnated with an acetone-diluted solution of the test substance was placed in the carton, and a 1 cm×1 cm piece of wool muslin was laid on said filter paper. This carton was set at a corner of a nylon gauze-made cage (20 cm×20 cm×30 cm), and a carton containing a filter paper not treated with hyssop oil and having wool muslin laid thereon was set at the diagonally opposite corner of the cage. About 60 female adults of Tineola bisselliella one to 2 days old after emergence were released in the cage, and the number of the insects which entered the cartons was counted. The test was conducted on a two-replication system.

For `CCN(CC)C(=O)c1cccc(C)c1` [DEET, N,N-diethyl-m-toluamide], which Entrance inhibition rate [1] is on record?
The Entrance inhibition rate was 38%.

What about the Entrance inhibition rate [2] of the same compound?
The Entrance inhibition rate was −10%.

What about the Entrance inhibition rate [3] of the same compound?
Its Entrance inhibition rate is 34%.

And the Entrance inhibition rate (Meqaselia spiracularis)?
Its Entrance inhibition rate is 34%.

And the Entrance inhibition rate (Clogmia albipunctata)?
The Entrance inhibition rate was 50%.

And the Entrance inhibition rate (Tineola bisselliella)?
The Entrance inhibition rate was 9.5%.
